From patent US20260132140A1, “IMIDAZOLYL-AMINO-PYRAZINE-CARBONITRILS AS CHK-1 INHIBITORS” (BenevolentAI Bio Limited, priority 2022, published 2026) come the findings set out here.

Data set [1] is described as follows: in vitro. Particulars: dog, MDCK, pH 7.4.
For data set [2], the target named is T1, BCRP (Homo sapiens, UniProt Q9UNQ0).
T1 sequence (Q9UNQ0 1-655): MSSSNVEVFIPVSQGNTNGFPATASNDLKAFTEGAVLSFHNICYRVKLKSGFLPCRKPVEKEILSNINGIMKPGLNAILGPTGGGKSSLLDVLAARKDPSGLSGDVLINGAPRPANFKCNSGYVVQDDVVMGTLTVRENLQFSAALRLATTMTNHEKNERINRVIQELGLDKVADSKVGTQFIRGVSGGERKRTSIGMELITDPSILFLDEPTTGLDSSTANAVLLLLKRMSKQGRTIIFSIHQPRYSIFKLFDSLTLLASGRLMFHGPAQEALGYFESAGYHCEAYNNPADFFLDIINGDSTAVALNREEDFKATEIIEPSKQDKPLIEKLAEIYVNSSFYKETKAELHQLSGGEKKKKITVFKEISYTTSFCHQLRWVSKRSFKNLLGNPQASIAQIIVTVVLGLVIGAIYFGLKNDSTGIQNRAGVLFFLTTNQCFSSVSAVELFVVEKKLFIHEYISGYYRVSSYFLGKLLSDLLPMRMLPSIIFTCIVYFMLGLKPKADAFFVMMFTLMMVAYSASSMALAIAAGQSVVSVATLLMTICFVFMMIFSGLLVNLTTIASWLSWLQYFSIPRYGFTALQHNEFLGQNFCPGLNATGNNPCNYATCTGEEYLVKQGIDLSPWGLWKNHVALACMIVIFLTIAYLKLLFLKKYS
The experiment in a line: in vitro. The conditions noted are these: dog, pH 7.4.

Data set [3] has as its target human Chk2 kinase (Homo sapiens, UniProt O96017). The data set is described as follows: biochemical.
Data set [4] addresses P-glycoprotein (P-gp, MDR1) (Homo sapiens, UniProt P08183). The experiment in a line: in vitro. The conditions noted are these: dog, MDCK-MDR1, pH 7.4.
Data set [5] concerns the target T2, human Chk1 kinase (Homo sapiens, UniProt O14757).
T2 sequence (O14757 1-476): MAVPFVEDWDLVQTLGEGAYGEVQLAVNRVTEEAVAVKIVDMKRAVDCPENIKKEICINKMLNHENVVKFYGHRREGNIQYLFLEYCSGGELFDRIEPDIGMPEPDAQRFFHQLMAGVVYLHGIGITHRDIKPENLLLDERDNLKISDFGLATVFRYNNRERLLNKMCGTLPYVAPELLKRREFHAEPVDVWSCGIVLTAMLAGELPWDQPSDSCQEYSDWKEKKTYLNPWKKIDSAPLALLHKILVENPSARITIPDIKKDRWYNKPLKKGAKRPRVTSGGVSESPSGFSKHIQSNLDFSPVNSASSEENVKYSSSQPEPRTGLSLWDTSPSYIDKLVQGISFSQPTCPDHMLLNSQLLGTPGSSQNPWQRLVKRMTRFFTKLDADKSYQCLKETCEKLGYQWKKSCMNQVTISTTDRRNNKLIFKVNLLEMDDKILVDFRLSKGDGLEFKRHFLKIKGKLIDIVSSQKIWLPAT
The data set is described as follows: biochemical.

The target of data set [6] is T3, RSK4 (Homo sapiens, UniProt Q9UK32).
T3 construct: purchased Eurofins (KinaseProfiler service)
The data set is described as follows: RSK1-4 kinase assay (Eurofins KinaseProfiler, radiometric): RSK4. It is filed as biochemical. The conditions noted are these: approximately ATP Km. From the text: (§1) The radiometric kinase activity assays were run at approximately the ATP Km for each kinase and the IC50 data is shown in Table 24.

In data set [7] the target is T4, RSK1 (Homo sapiens, UniProt Q15418).
T4 construct: purchased Eurofins (KinaseProfiler service)
The experiment in a line: RSK1-4 kinase assay (Eurofins KinaseProfiler, radiometric): RSK1. The format is biochemical. The conditions noted are these: approximately ATP Km.
From the text: as §1

Data set [8] has as its target T5, RSK2 (Homo sapiens, UniProt P51812).
T5 construct: purchased Eurofins (KinaseProfiler service)
The experiment in a line: RSK1-4 kinase assay (Eurofins KinaseProfiler, radiometric): RSK2. It is filed as biochemical. The conditions noted are these: approximately ATP Km.
From the text: as §1

Data set [9] is described as follows: Determination of CNS penetration in vivo, unbound brain to plasma ratio (Kpuu). The conditions noted are these: male, Sprague Dawley, rat, iv, 1 mg/kg.
In data set [10] the test system is GBM LN18 cells. The experiment in a line: In vitro cell viability assay (Cell Titre Glo, 72 hours). The format is cell-based. The conditions noted are these: Homo sapiens, LN-18, read-out: LN18 pIC50 (converted). The gist of the method: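 LN18 glioblastoma cells were exposed to compound for 72 h in a 10-point concentration series up to 10 μM. Viability was read as cellular ATP by CellTiter-Glo luminescence, and % inhibition was calculated against the vehicle and inhibited control wells on each plate.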

For data set [11], the target named is T6, RSK3 (Homo sapiens, UniProt Q15349).
T6 construct: purchased Eurofins (KinaseProfiler service)
The data set is described as follows: RSK1-4 kinase assay (Eurofins KinaseProfiler, radiometric): RSK3. It is filed as biochemical. Particulars: approximately ATP Km.
From the text: as §1

The test system of data set [12] is pChk1(Ser296) in SW620 cells. The data set is described as follows: pChk1(Ser296) sandwich ELISA, cell-based on-target kinase activity. Particulars: Homo sapiens, SW-620, neocarzinostatin 7.5 μM, 2 hours, read-out: SW620 pIC50 (converted). The method, then: ELISA assays were performed as per the manufacturer's protocol. […] Selected compounds of the invention were tested as a 8-point concentration response up to a maximum concentration of either 1 μM, 3 μM or 10 μM. The percent (%) effect i.e. inhibition at each concentration of compound was calculated based on, and relative to, the amount of inhibition produced in the vehicle control and inhibited control wells contained within each plate.

For data set [13], the system named is 373 human wild-type kinases. The experiment in a line: Kinome selectivity, Eurofins KinaseProfiler kinase screen. It is filed as biochemical. The conditions noted are these: panel of 373 human wild-type kinases, approximately ATP Km, top concentration 10 μM. From the text:
The radiometric kinase activity assays were run at approximately the ATP Km for each kinase.

Where only a bound is given, the exact number is not on record here.

Chain of human Chk2 kinase (O96017 whole entry): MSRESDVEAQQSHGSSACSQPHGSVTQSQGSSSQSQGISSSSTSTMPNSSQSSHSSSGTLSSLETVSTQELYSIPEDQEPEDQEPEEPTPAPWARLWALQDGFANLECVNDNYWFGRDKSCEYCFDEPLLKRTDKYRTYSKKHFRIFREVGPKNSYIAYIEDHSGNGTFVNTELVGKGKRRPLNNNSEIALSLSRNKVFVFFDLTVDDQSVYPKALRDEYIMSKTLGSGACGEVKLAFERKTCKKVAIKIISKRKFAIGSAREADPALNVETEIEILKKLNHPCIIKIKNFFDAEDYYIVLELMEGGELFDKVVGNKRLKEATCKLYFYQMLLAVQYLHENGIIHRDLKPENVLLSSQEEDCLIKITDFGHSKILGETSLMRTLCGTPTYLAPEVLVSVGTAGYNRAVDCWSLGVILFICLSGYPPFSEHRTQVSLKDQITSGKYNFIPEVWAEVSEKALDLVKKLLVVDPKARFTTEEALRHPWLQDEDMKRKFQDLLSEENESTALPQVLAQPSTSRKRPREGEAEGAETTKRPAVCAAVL
T6 sequence (Q15349 whole entry): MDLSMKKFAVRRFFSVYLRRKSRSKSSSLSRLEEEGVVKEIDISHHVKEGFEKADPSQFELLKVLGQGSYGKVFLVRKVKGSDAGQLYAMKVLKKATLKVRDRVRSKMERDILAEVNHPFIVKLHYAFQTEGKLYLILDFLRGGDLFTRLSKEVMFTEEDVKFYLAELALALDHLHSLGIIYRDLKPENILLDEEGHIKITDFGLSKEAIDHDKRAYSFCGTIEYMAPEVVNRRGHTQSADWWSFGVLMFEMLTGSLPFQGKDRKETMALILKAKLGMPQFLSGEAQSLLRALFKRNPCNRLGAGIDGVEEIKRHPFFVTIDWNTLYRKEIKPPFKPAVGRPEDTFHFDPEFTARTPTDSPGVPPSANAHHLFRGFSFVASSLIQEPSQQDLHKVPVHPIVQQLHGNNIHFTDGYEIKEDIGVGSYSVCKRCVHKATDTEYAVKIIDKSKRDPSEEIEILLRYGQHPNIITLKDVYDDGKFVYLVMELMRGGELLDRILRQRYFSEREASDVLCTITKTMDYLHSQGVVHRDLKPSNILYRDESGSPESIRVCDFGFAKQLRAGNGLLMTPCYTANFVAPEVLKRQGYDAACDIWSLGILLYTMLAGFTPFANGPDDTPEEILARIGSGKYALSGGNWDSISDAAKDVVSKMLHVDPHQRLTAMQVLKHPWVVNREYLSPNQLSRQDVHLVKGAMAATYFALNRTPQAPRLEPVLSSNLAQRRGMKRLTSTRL
Chain of P-glycoprotein (P-gp, MDR1) (P08183 whole entry): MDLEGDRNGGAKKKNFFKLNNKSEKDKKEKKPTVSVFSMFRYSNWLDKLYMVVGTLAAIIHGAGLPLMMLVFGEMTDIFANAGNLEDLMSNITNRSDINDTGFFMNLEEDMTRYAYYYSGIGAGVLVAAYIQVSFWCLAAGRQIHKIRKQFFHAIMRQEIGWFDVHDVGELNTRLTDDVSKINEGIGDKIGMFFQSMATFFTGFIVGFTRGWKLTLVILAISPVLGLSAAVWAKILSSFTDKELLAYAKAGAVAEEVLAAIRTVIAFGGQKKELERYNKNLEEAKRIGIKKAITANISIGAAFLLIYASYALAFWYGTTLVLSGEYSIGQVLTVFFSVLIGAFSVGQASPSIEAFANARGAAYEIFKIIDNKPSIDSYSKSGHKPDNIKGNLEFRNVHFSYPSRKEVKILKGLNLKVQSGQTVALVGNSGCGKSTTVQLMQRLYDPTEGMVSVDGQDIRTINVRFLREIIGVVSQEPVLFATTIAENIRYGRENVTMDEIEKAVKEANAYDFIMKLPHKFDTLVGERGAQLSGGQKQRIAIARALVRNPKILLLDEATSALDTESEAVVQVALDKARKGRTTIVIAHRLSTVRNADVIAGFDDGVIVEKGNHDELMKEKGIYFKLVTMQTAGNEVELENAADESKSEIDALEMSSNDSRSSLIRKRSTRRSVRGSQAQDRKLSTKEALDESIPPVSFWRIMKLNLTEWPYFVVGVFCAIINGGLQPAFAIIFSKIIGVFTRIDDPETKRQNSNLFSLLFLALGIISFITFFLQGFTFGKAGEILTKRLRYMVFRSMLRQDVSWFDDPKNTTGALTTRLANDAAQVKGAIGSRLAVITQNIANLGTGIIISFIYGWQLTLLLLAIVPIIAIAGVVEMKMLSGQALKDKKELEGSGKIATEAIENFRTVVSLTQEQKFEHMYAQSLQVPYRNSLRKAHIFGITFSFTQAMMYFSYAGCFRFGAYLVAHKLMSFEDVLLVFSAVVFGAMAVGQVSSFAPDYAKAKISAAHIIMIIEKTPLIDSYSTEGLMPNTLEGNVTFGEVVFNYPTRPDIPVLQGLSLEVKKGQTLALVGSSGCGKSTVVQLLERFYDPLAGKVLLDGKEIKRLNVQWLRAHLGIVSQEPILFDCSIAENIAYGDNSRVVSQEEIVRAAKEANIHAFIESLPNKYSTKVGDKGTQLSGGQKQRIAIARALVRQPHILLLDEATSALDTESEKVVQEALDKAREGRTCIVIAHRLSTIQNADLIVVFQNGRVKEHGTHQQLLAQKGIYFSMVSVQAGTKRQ
T4 sequence (Q15418 whole entry): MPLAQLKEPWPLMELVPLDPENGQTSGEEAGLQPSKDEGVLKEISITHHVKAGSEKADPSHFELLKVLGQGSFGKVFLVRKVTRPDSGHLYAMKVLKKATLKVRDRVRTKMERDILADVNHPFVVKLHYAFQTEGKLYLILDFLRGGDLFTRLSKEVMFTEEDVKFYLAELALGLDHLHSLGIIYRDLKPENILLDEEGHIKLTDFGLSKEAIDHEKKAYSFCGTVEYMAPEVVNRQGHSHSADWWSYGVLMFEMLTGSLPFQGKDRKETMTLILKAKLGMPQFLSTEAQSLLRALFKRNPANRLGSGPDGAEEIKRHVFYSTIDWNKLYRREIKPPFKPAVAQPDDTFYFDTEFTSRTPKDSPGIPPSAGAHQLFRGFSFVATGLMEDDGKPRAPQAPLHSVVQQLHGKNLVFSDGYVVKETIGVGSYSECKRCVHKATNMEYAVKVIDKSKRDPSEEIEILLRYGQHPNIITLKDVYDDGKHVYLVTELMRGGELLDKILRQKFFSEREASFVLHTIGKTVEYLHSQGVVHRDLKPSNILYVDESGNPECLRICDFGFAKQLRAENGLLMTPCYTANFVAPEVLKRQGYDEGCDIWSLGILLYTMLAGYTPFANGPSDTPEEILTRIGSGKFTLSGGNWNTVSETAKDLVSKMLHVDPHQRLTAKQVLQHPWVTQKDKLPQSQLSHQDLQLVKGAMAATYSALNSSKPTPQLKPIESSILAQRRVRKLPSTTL
T5 sequence (P51812 whole entry): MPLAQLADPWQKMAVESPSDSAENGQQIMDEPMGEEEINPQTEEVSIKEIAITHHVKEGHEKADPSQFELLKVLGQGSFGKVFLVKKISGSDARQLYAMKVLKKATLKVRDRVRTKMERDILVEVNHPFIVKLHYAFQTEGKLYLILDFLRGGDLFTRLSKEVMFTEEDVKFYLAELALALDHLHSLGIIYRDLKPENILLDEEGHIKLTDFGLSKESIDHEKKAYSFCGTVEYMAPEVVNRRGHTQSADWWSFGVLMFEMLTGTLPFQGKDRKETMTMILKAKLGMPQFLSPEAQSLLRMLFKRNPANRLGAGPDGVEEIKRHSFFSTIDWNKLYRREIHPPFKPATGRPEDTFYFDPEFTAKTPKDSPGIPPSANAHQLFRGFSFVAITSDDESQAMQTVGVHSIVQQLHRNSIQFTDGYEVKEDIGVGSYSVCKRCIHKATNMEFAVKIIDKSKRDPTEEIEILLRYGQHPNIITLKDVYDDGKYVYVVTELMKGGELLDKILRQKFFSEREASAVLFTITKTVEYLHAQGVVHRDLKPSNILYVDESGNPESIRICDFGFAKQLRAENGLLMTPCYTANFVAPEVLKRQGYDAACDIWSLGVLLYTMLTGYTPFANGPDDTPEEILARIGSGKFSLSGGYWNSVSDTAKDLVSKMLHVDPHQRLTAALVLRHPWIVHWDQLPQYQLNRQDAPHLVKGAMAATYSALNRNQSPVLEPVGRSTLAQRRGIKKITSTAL
T3 sequence (Q9UK32 whole entry): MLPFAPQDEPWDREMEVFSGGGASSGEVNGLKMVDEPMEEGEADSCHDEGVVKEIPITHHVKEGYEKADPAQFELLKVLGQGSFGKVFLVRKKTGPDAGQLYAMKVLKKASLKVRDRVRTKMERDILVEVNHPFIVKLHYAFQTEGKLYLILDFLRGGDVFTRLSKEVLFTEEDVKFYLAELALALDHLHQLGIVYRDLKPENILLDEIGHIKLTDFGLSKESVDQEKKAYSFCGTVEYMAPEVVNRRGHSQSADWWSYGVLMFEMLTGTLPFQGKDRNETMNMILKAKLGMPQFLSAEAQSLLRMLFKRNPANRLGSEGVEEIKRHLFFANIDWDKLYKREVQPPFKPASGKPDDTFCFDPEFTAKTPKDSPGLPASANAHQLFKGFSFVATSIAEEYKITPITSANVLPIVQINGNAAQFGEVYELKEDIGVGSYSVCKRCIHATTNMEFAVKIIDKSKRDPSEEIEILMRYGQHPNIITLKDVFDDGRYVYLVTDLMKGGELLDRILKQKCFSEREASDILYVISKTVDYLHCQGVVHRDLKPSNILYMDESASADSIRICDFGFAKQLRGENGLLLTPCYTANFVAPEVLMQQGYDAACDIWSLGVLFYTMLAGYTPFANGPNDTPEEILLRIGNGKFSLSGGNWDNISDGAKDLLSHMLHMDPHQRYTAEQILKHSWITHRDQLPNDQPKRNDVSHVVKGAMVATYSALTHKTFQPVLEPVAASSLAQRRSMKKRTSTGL

The term Papp A→B denotes the apparent permeability from the apical to the basolateral side of a cell layer. A high value points to ready permeation. A word on the efflux ratio: it is a quotient of directional permeabilities that is used to spot active efflux. `N#Cc1cnc(Nc2cn(-c3ccc(N4CCN(CCF)CC4)cc3)cn2)cn1` [Example 183, 5-((1-(4-(4-(2-Fluoroethyl)piperazin-1-yl)phenyl)-1H-imidazol-4-yl)amino)pyrazine-2-carbonitrile] registered a Papp A→B at 60 min, 1 μM in data set [1] of 84 ×10⁻⁶ cm/s. In addition, the efflux ratio at 60 min, 1 μM amounted to 1.4 in data set [2] and 0.7 in data set [4]. The IC50 lay in the range of 10000 to 100000 nM in [3] and 31.6 to 100 nM in data set [5].
Turning to `C[C@@H]1C[C@@H](N2CCC2)CN1c1ccc(-n2cnc(Nc3cnc(C#N)cn3)c2)cc1` [Example 98, 5-((1-(4-((2R,4R)-4-(Azetidin-1-yl)-2-methylpyrrolidin-1-yl)phenyl)-1H-imidazol-4-yl)amino)pyrazine-2-carbonitrile], the IC50 in [6] is 2470 nM; in data set [7], 3550 nM; in [8] it was 786 nM; in [10] it was less than 1000 nM; in [11], 651 nM; in data set [12], less than 1000 nM. In addition, the Kp uu at 0.25 h in [9] amounted to 0.8.
Turning to `N#Cc1cnc(Nc2cn(-c3ccc(N4CCN(CCC(F)(F)F)CC4)cc3)cn2)cn1` [Example 184, 5-((1-(4-(4-(3,3,3-Trifluoropropyl)piperazin-1-yl)phenyl)-1H-imidazol-4-yl)amino)pyrazine-2-carbonitrile], the apical-to-basolateral permeability (Papp A→B) at 60 min, 1 μM in [1] amounted to 43 ×10⁻⁶ cm/s. Also, the efflux ratio at 60 min, 1 μM worked out at 1.1 in [2] and 0.9 in data set [4]. The IC50 in [3] is more than 100000 nM; in data set [5] it was 100 to 316 nM.
As to `CN1CCN(c2ccc(-n3cnc(Nc4cnc(C#N)cn4)c3)cc2)CC1` [Example 143, 5-((1-(4-(4-Methylpiperazin-1-yl)phenyl)-1H-imidazol-4-yl)amino)pyrazine-2-carbonitrile], in data set [13], the “Number of 372 kinases inhibited relative to Chk1 IC50 Within 10-fold” value is 3. In data set [13], the “Number of 372 kinases inhibited relative to Chk1 IC50 Within 100-fold” value was found to be 10. Further, the IC50 in [6] is more than 10000 nM; in [7], 9450 nM; in data set [3] it was 10000 to 100000 nM; in data set [8], 3040 nM; in data set [11], 2070 nM; in [5], 10 to 31.6 nM. For the same compound, the Kp uu at 0.25 h in data set [9] is 0.4.
In the case of `COc1cc(C2(F)CCN(C)CC2)ccc1-c1cc(Nc2cnc(C#N)cn2)n[nH]1` [Comparator Ex. 4, 5-((5-(4-(4-Fluoro-1-methylpiperidin-4-yl)-2-methoxyphenyl)-1H-pyrazol-3-yl)amino)pyrazine-2-carbonitrile, reference compound], the IC50 in [6] was found to be 58 nM; in data set [7] it was 329 nM; in [8], 59 nM; in [11], 35 nM. In data set [1], the Papp A→B at 60 min, 1 μM was found to be 19 ×10⁻⁶ cm/s. The efflux ratio at 60 min, 1 μM in data set [2] came to 12; in data set [4], 16.
In the case of `CN(C)[C@@H]1CCN(c2ccc(-n3cnc(Nc4cnc(C#N)cn4)c3)nc2)C1` [Example 50, (R)-5-((1-(5-(3-(Dimethylamino)pyrrolidin-1-yl)pyridin-2-yl)-1H-imidazol-4-yl)amino)pyrazine-2-carbonitrile], the IC50 in data set [6] was 3140 nM; in [7] it was 4470 nM; in [8], 6670 nM; in data set [10] it was less than 1000 nM; in data set [11], 1020 nM; in data set [12], less than 1000 nM. Also, the Kp uu at 0.25 h in [9] turned out to be 0.5.
